The nature of data set [1]: Cytotoxicity against human HepG2.2.15 cells. The data set is classed as cell-based, HepG2 2.2.15.
The subject of data set [2] is Hepatitis B virus. The experiment in a line: Antiviral activity against hepatitis B virus-infected human HepG2.2.15 cells assessed as inhibition of HBV e antigen secretion. The data set is classed as functional, organism-based. As to conditions: HepG2 2.2.15.
The subject of data set [3] is Hepatitis B virus. Kind of data set: Antiviral activity against hepatitis B virus-infected human HepG2.2.15 cells assessed as inhibition of HBV surface antigen secretion. It counts as functional, organism-based. As to conditions: HepG2 2.2.15.
A short description of data set [4]: Selectivity index, ratio of CC50 for human HepG2.2.15 cells to IC50 for HBV e antigen secretion. It counts as functional.
A short description of data set [5]: Selectivity index, ratio of CC50 for human HepG2.2.15 cells to IC50 for HBV surface antigen secretion. It counts as functional.

The values below come from ChEMBL document CHEMBL1155923, “Anti-HBV agents. Part 1: Synthesis of alisol A derivatives: a new class of hepatitis B virus inhibitors” (Bioorg Med Chem Lett, 2008).

The structures appear in SMILES notation. Where only a bound is given, the exact number is not on record here.

`CCC(=O)O[C@@H](C[C@@H](C)C1=C2C[C@H](OC(=O)CC)[C@H]3[C@@]4(C)CCC(=O)C(C)(C)[C@@H]4CC[C@]3(C)[C@@]2(C)CC1)[C@@H](OC(=O)CC)C(C)(C)O`: the cytotoxic concentration (CC50) (as a rule, the concentration at which the toxic effect on the cells reaches its halfway point) in data set [1] was greater than 1400 µM. Further, the concentration for half-maximal inhibition (IC50) in data set [2] and in data set [3] was greater than 1400 µM each time.
In data set [1], `CCC(=O)O[C@@H](C[C@@H](C)[C@]12CC[C@@]3(C)[C@@]1(C[C@H](OC(=O)CC)[C@H]1[C@@]4(C)CCC(=O)C(C)(C)[C@@H]4CC[C@@]13C)O2)[C@@H](OC(=O)CC)C(C)(C)O` displayed a cytotoxic concentration (CC50) greater than 1200 µM. Also, the IC50 in data set [2] and in data set [3] was greater than 1200 µM each time.
For the molecule `C=C(C)[C@H](OC(=O)CC)[C@H](C[C@@H](C)C1=C2C[C@H](OC(=O)CC)[C@H]3[C@@]4(C)CCC(=O)C(C)(C)[C@@H]4CC[C@]3(C)[C@@]2(C)CC1)OC(=O)CC`, the CC50 in data set [1] is greater than 1200 µM. In addition, the IC50 in data set [2] and in data set [3] was greater than 12000 µM throughout.
`CC(=O)O[C@@H](C[C@@H](C)C1=C2C[C@H](OC(C)=O)[C@H]3[C@@]4(C)CCC(=O)C(C)(C)[C@@H]4CC[C@]3(C)[C@@]2(C)CC1)[C@@H](OC(C)=O)C(C)(C)O` yielded a CC50 in data set [1] greater than 2000 µM. Further, the IC50 in data set [2] and in data set [3] was greater than 2000 µM each time.
For `C=C(C)[C@H](OC(C)=O)[C@H](C[C@@H](C)[C@]12CC[C@@]3(C)[C@@]1(C[C@H](OC(C)=O)[C@H]1[C@@]4(C)CCC(=O)C(C)(C)[C@@H]4CC[C@@]13C)O2)OC(C)=O`, the “Ratio CC50/IC50” value in data set [4] is on record as greater than 93; in data set [5] it was greater than 108. In data set [1], this molecule showed a CC50 greater than 2600 µM. The IC50 (usually the concentration that gives 50% inhibition) is 28 µM in data set [2] and 24 µM in data set [3].
In the same order, the values of `C[C@H](C[C@H](O)[C@@H](O)C(C)(C)O)[C@]12CC[C@@]3(C)[C@@]1(C[C@H](O)[C@H]1[C@@]4(C)CCC(=O)C(C)(C)[C@@H]4CC[C@@]13C)O2` are 0.39, 9.6, 430 µM, 1100 µM and 45 µM.
The corresponding values for `C[C@H](C[C@H](O)[C@@H](O)C(C)(C)O)C1=C2C[C@H](O)[C@H]3[C@@]4(C)CCCC(C)(C)[C@@H]4CC[C@]3(C)[C@@]2(C)CC1` are less than 0.016, less than 1, less than 80 µM, 5100 µM and 80 µM.
Turning to `CC(=O)O[C@@H](C[C@@H](C)[C@]12CC[C@@]3(C)[C@@]1(C[C@H](OC(C)=O)[C@H]1[C@@]4(C)CCC(=O)C(C)(C)[C@@H]4CC[C@@]13C)O2)[C@@H](OC(C)=O)C(C)(C)O`, the CC50 in data set [1] is greater than 2000 µM. In addition, the IC50 in data set [2] and in data set [3] was greater than 2000 µM throughout.
`C[C@H](C[C@H](OC(=O)c1ccccc1)[C@@H](OC(=O)c1ccccc1)C(C)(C)O)C1=C2C[C@H](OC(=O)c3ccccc3)[C@H]3[C@@]4(C)CCC(=O)C(C)(C)[C@@H]4CC[C@]3(C)[C@@]2(C)CC1` yielded a 50% cytotoxic concentration (CC50) in data set [1] greater than 1500 µM. The half-maximal inhibitory concentration (IC50) in data set [2] and in data set [3] was greater than 1500 µM throughout.
In data set [1], `C=C(C)[C@H](OC(=O)c1ccccc1)[C@H](C[C@@H](C)[C@]12CC[C@@]3(C)[C@@]1(C[C@H](OC(=O)c1ccccc1)[C@H]1[C@@]4(C)CCC(=O)C(C)(C)[C@@H]4CC[C@@]13C)O2)OC(=O)c1ccccc1` yielded a 50% cytotoxic concentration (CC50) greater than 1600 µM. The IC50 in data set [2] and in data set [3] was greater than 1600 µM in each case.
With `C[C@H](C[C@H](OC(=O)/C=C/c1ccccc1)[C@@H](OC(=O)/C=C/c1ccccc1)C(C)(C)O)C1=C2C[C@H](OC(=O)/C=C/c3ccccc3)[C@H]3[C@@]4(C)CCC(=O)C(C)(C)[C@@H]4CC[C@]3(C)[C@@]2(C)CC1`, the 50% cytotoxic concentration (CC50) in data set [1] was greater than 1400 µM. The IC50 in data set [2] and in data set [3] was greater than 1400 µM each time.
Take `Cc1ccc(S(=O)(=O)N/N=C2\CC[C@@]3(C)[C@@H](CC[C@@]4(C)[C@H]3[C@@H](O)CC3=C([C@H](C)C[C@H](O)[C@@H](O)C(C)(C)O)CC[C@@]34C)C2(C)C)cc1`: the “Ratio CC50/IC50” value in data set [4] and in data set [5] was less than 1 in each case. This molecule also gave a half-maximal cytotoxic concentration (CC50) in data set [1] of less than 29 µM. Moreover, the concentration for half-maximal inhibition (IC50) in data set [2] and in data set [3] was 29 µM in each case.
On to `C=C(C)[C@H](OC(=O)c1ccccc1)[C@H](C[C@@H](C)C1=C2C[C@H](OC(=O)c3ccccc3)[C@H]3[C@@]4(C)CCC(=O)C(C)(C)[C@@H]4CC[C@]3(C)[C@@]2(C)CC1)OC(=O)c1ccccc1`, for which, in data set [1], the CC50 is greater than 2300 µM. Besides, the IC50 in data set [2] and in data set [3] was greater than 2300 µM throughout.
`C=C(C)[C@H](OC(=O)CC)[C@H](C[C@@H](C)[C@]12CC[C@@]3(C)[C@@]1(C[C@H](OC(=O)CC)[C@H]1[C@@]4(C)CCC(=O)C(C)(C)[C@@H]4CC[C@@]13C)O2)OC(=O)CC` registered a half-maximal cytotoxic concentration (CC50) in data set [1] greater than 2500 µM. In data set [5], the “Ratio CC50/IC50” value is recorded as greater than 16. Also, the results for the IC50 in data set [2] and in data set [3] were greater than 2500 µM and 160 µM, respectively.
In data set [1], `CC(C)C(=O)O[C@@H](C[C@@H](C)[C@]12CC[C@@]3(C)[C@@]1(C[C@H](OC(=O)C(C)C)[C@H]1[C@@]4(C)CCC(=O)C(C)(C)[C@@H]4CC[C@@]13C)O2)[C@@H](OC(=O)C(C)C)C(C)(C)O` displayed a half-maximal cytotoxic concentration (CC50) greater than 1900 µM. Moreover, the IC50 in data set [2] and in data set [3] was greater than 1900 µM throughout.
In data set [1], `C=C(C)[C@H](OC(=O)/C=C/c1ccccc1)[C@H](C[C@@H](C)C1=C2C[C@H](OC(=O)/C=C/c3ccccc3)[C@H]3[C@@]4(C)CCC(=O)C(C)(C)[C@@H]4CC[C@]3(C)[C@@]2(C)CC1)OC(=O)/C=C/c1ccccc1` yielded a half-maximal cytotoxic concentration (CC50) greater than 1800 µM. Moreover, the half-inhibitory concentration (IC50) in data set [2] and in data set [3] was greater than 1800 µM each time.
With `CC(C)C(=O)O[C@@H](C[C@@H](C)C1=C2C[C@H](OC(=O)C(C)C)[C@H]3[C@@]4(C)CCC(=O)C(C)(C)[C@@H]4CC[C@]3(C)[C@@]2(C)CC1)[C@@H](OC(=O)C(C)C)C(C)(C)O`, the “Ratio CC50/IC50” value in data set [4] is reported as greater than 2.4; in data set [5] it was greater than 1.3. Further, the cytotoxic concentration (CC50) in data set [1] is greater than 2200 µM. In addition, the IC50 in data set [2] amounted to 900 µM; in data set [3], 1700 µM.
Turning to `C=C(C)[C@H](OC(=O)C(C)C)[C@H](C[C@@H](C)[C@]12CC[C@@]3(C)[C@@]1(C[C@H](OC(=O)C(C)C)[C@H]1[C@@]4(C)CCC(=O)C(C)(C)[C@@H]4CC[C@@]13C)O2)OC(=O)C(C)C`, in data set [1], the CC50 was greater than 1300 µM. Besides, the IC50 in data set [2] and in data set [3] was greater than 1300 µM throughout.
For the molecule `C=C(C)[C@H](OC(=O)/C=C/c1ccccc1)[C@H](C[C@@H](C)[C@]12CC[C@@]3(C)[C@@]1(C[C@H](OC(=O)/C=C/c1ccccc1)[C@H]1[C@@]4(C)CCC(=O)C(C)(C)[C@@H]4CC[C@@]13C)O2)OC(=O)/C=C/c1ccccc1`, the CC50 in data set [1] was greater than 1600 µM. The half-maximal inhibitory concentration (IC50) in data set [2] and in data set [3] was greater than 1600 µM in each case.
In the case of `C[C@H](C[C@H](OC(=O)c1ccccc1)[C@@H](OC(=O)c1ccccc1)C(C)(C)O)[C@]12CC[C@@]3(C)[C@@]1(C[C@H](OC(=O)c1ccccc1)[C@H]1[C@@]4(C)CCC(=O)C(C)(C)[C@@H]4CC[C@@]13C)O2`, in data set [4], the “Ratio CC50/IC50” value is greater than 1.5. Also, the CC50 in data set [1] is greater than 1700 µM. Besides, the figures for the IC50 in data set [2] and in data set [3] were 1100 µM and greater than 1700 µM, respectively.
For the molecule `C=C(C)[C@H](OC(=O)C(C)C)[C@H](C[C@@H](C)C1=C2C[C@H](OC(=O)C(C)C)[C@H]3[C@@]4(C)CCC(=O)C(C)(C)[C@@H]4CC[C@]3(C)[C@@]2(C)CC1)OC(=O)C(C)C`, the half-maximal cytotoxic concentration (CC50) in data set [1] is greater than 1600 µM. For the same molecule, the IC50 in data set [2] and in data set [3] was greater than 1600 µM each time.
With `C=C(C)[C@H](OC(C)=O)[C@H](C[C@@H](C)C1=C2C[C@H](OC(C)=O)[C@H]3[C@@]4(C)CCC(=O)C(C)(C)[C@@H]4CC[C@]3(C)[C@@]2(C)CC1)OC(C)=O`, the “Ratio CC50/IC50” value in data set [4] and in data set [5] was 18 throughout. In addition, half-maximal cytotoxicity in data set [1] (CC50) was put at 520 µM. Also, the IC50 in data set [2] amounted to 29 µM; in data set [3] it was 28 µM.
With `C[C@H](C[C@H](OC(=O)/C=C/c1ccccc1)[C@@H](OC(=O)/C=C/c1ccccc1)C(C)(C)O)[C@]12CC[C@@]3(C)[C@@]1(C[C@H](OC(=O)/C=C/c1ccccc1)[C@H]1[C@@]4(C)CCC(=O)C(C)(C)[C@@H]4CC[C@@]13C)O2`, the “Ratio CC50/IC50” value in data set [4] was greater than 1.3. The molecule also registered a half-maximal cytotoxic concentration (CC50) in data set [1] greater than 1300 µM. Further, the half-inhibitory concentration (IC50) in data set [2] was 1000 µM; in data set [3], greater than 1300 µM.
For `C[C@H](C[C@H](O)[C@@H](O)C(C)(C)O)C1=C2C[C@H](O)[C@H]3[C@@]4(C)CCC(=O)C(C)(C)[C@@H]4CC[C@]3(C)[C@@]2(C)CC1` [ALISOL A], the “Ratio CC50/IC50” value is recorded as less than 0.03 in data set [4] and 1.6 in data set [5]. Also, the midpoint of cytotoxicity in data set [1], the CC50, lay at 62 µM. Also, the figures for the concentration for half-maximal inhibition (IC50) in data set [2] and in data set [3] were greater than 2400 µM and 39 µM, respectively.
